For this assay, the target named is T1, GLP-1 Receptor (Homo sapiens, UniProt P43220).
T1 construct: host or cells: HEK293/CRE-Luc
Kind of assay: GLP-1R agonist cAMP stimulation assay. Format: cell-based. Particulars: HEK293/CRE-Luc cell line stably expressing the GLP-1 Receptor; 30 min at 37° C.; cAMP dynamic 2 Kit. As to the method:
Activation of GLP-1 receptor is known to stimulate cyclic AMP (cAMP) production in cells which indicates primary coupling to the Gas subunit of the G protein heterotrimeric complex.
To optimize functional activity directed toward Gas coupling, a HEK293/CRE-Luc cell line developed by HDB stably expressing the GLP-1 Receptor was used. 200× concentration of compound working solutions were prepared (Agilent Technologies Bravo) with ½ log serial dilution in 384-well Echo LDV plate (Labcyte, Cat #LP-0200). 50 nL/well 200× concentration of compound working solutions were moved to 384-well white low volume plate (Greiner, Cat #784075) using Labcyte ECHO550. 1×10^5 cells/mL HEK293/GLPlR/CRE-LUC (HD Biosciences) cell suspensions prepared with assay buffer [DPBS containing 0.5 mM IBMX (Sigma, Cat #15879) and 0.1% BSA (GENVIEW, Cat #FA016-100g)], 10 μL cell suspensions were added to each well of previous generated assay plate which already contains 50 nL compound at 200× concentration using ThermoFisher Multidrop Combi (1000 cells/well). Seal the plate and incubate at 37° C. with 5% CO2 for 30 min.
After incubation the cAMP assay signal was generated using cAMP dynamic 2 Kit (Cisbio). 5 μL cAMP-d2 working solution was added to each well, followed with 5 μL Anti-cAMP antibody-cryptate working solution added to each well using ThermoFisher Multidrop Combi. Incubate at room temperature for 1 hour protected from light. Read the fluorescence at 665 and 615 nm with Reader PerkinElmer EnVision.
% Activity=100%×(mean RLU of test sample mean RLU of vehicle control)/(mean RLU of MAX control−mean RLU of vehicle control))

Results on 18 compounds are retold here after patent US20250145596A1, “HETEROCYCLIC GLP-1 AGONISTS” (Gasherbrum Bio, Inc., priority 2022, published 2025).

T1 sequence (P43220 24-463): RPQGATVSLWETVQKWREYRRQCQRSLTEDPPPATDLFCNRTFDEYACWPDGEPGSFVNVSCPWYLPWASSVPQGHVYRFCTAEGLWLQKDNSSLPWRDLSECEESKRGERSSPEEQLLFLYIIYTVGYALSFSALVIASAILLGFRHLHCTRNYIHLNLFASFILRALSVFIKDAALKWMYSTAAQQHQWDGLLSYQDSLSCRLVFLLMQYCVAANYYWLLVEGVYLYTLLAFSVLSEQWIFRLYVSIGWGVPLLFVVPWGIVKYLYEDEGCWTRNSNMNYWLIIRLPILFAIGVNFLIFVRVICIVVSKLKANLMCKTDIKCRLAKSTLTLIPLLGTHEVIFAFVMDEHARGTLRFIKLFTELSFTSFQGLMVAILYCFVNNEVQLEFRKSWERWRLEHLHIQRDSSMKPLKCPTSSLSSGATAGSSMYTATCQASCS

Consider `CC1(c2ccc(Cl)cc2Cl)Oc2cccc(C3CCN(Cc4ncc(-c5nnc(C(F)(F)F)[nH]5)cc4CC4(C#N)CC4)CC3)c2O1` (single isomer, unassigned) [Example 2, 1-{[2-({4-[2-(2,4-dichlorophenyl)-2-methyl-2H-1,3-benzodioxol-4-yl]piperidin-1-yl}methyl)-5-[5-(trifluoromethyl)-4H-1,2,4-triazol-3-yl]pyridin-3-yl]methyl}cyclopropane-1-carbonitrile], for which the EC50 is under 1 nM.

Consider `CC1(c2ccc(Cl)cc2Cl)Oc2cccc(C3CCN(Cc4ncc(-c5nnc(C(F)(F)F)[nH]5)cc4CC4(C#N)CC4)CC3)c2O1` (single isomer, unassigned) [Example 3, 1-{[2-({4-[2-(2,4-dichlorophenyl)-2-methyl-2H-1,3-benzodioxol-4-yl]piperidin-1-yl}methyl)-5-[5-(trifluoromethyl)-4H-1,2,4-triazol-3-yl]pyridin-3-yl]methyl}cyclopropane-1-carbonitrile], for which the EC50 was under 1 nM.

Compound `CC1(c2ccc(Cl)cc2F)Oc2cc(F)cc(C3CCN(Cc4ncc(-c5nnc(C(F)(F)F)[nH]5)cc4CC4(C#N)CC4)CC3)c2O1` (single isomer, unassigned) [Example 13, 1-{[2-({4-[2-(4-chloro-2-fluorophenyl)-6-fluoro-2-methyl-2H-1,3-benzodioxol-4-yl]piperidin-1-yl}methyl)-5-[5-(trifluoromethyl)-4H-1,2,4-triazol-3-yl]pyridin-3-yl]methyl}cyclopropane-1-carbonitrile] yielded an EC50 of under 1 nM.

Compound `CC1(c2ccc(Cl)cc2F)Oc2cc(F)cc(C3CCN(Cc4ncc(-c5nnc(C(F)(F)F)[nH]5)cc4CC4(C#N)CC4)CC3)c2O1` (single isomer, unassigned) [Example 14, 1-{[2-({4-[2-(4-chloro-2-fluorophenyl)-6-fluoro-2-methyl-2H-1,3-benzodioxol-4-yl]piperidin-1-yl}methyl)-5-[5-(trifluoromethyl)-4H-1,2,4-triazol-3-yl]pyridin-3-yl]methyl}cyclopropane-1-carbonitrile] showed an EC50 of under 1 nM.

As for `CC1(c2ccc(Cl)cc2F)Oc2cccc(C3CCN(Cc4ncc(-c5nnc(C(F)(F)F)[nH]5)cc4CC4(C#N)CC4)CC3O)c2O1` (single isomer, unassigned) [Example 23, 1-[(2-{[(3,4-trans)-4-[2-(4-chloro-2-fluorophenyl)-2-methyl-2H-1,3-benzodioxol-4-yl]-3-hydroxypiperidin-1-yl]methyl}-5-[5-(trifluoromethyl)-4H-1,2,4-triazol-3-yl]pyridin-3-yl)methyl]cyclopropane-1-carbonitrile], the EC50 was 1 to 100 nM.

In turn, `CC1(c2ccc(Cl)cc2F)Oc2cccc(C3CCN(Cc4ncc(-c5nnc(C(F)(F)F)[nH]5)cc4CC4(C#N)CC4)CC3O)c2O1` (single isomer, unassigned) [Example 24, 1-[(2-{[(3,4-trans)-4-[2-(4-chloro-2-fluorophenyl)-2-methyl-2H-1,3-benzodioxol-4-yl]-3-hydroxypiperidin-1-yl]methyl}-5-[5-(trifluoromethyl)-4H-1,2,4-triazol-3-yl]pyridin-3-yl)methyl]cyclopropane-1-carbonitrile] displayed an EC50 of under 1 nM.

As for `C[C@]1(c2ccc(Cl)cn2)Oc2cccc(C3CCN(Cc4ncc(-c5nnc(C(F)(F)F)[nH]5)cc4CC4(C#N)CC4)CC3F)c2O1` (single isomer, unassigned) [Example 25], the EC50 was under 1 nM.

In turn, `C[C@]1(c2ccc(Cl)cn2)Oc2cccc(C3CCN(Cc4ncc(-c5nnc(C(F)(F)F)[nH]5)cc4CC4(C#N)CC4)CC3F)c2O1` (single isomer, unassigned) [Example 26] displayed an EC50 of under 1 nM.

Take `C[C@]1(c2ccc(Cl)cc2F)Oc2cccc(C3CCN(Cc4ncc(-c5nnc(C(F)(F)F)[nH]5)cc4CC4(C#N)CC4)CC3F)c2O1` (single isomer, unassigned) [Example 27]: the EC50 is under 1 nM.

Consider `C[C@]1(c2ccc(Cl)cc2F)Oc2cccc(C3CCN(Cc4ncc(-c5nnc(C(F)(F)F)[nH]5)cc4CC4(C#N)CC4)CC3F)c2O1` (single isomer, unassigned) [Example 28], for which the EC50 is under 1 nM.

On to `C[C@]1(c2ccc(Cl)cc2F)Oc2c(F)ccc(C3CCN(Cc4ncc(-c5nnc(C(F)(F)F)[nH]5)cc4CC4(C#N)CC4)CC3F)c2O1` (single isomer, unassigned) [Example 29], for which the EC50 is under 1 nM.

For the compound `C[C@]1(c2ccc(Cl)cc2F)Oc2c(F)ccc(C3CCN(Cc4ncc(-c5nnc(C(F)(F)F)[nH]5)cc4CC4(C#N)CC4)CC3F)c2O1` (single isomer, unassigned) [Example 30], the EC50 is under 1 nM.

In turn, `CC1(c2ccc(Cl)cc2Cl)Oc2cccc(C3CCN(Cc4ncc(-c5nnc(C(F)(F)F)[nH]5)cc4CC4(C#N)CC4)CC3)c2O1` (stereo not drawn) [Example 1, 1-{[2-({4-[2-(2,4-dichlorophenyl)-2-methyl-2H-1,3-benzodioxol-4-yl]piperidin-1-yl}methyl)-5-[5-(trifluoromethyl)-4H-1,2,4-triazol-3-yl]pyridin-3-yl]methyl}cyclopropane-1-carbonitrile] gave an EC50 of under 1 nM.

Consider `CC1(c2ccc(F)cc2Cl)Oc2cccc(C3CCN(Cc4ncc(-c5nnc(C(F)(F)F)[nH]5)cc4CC4(C#N)CC4)CC3)c2O1` (stereo not drawn) [Example 4, 1-{[2-({4-[2-(2-chloro-4-fluorophenyl)-2-methyl-2H-1,3-benzodioxol-4-yl]piperidin-1-yl}methyl)-5-[5-(trifluoromethyl)-4H-1,2,4-triazol-3-yl]pyridin-3-yl]methyl}cyclopropane-1-carbonitrile], for which the EC50 was under 1 nM.

`CC1(c2ccc(F)cc2F)Oc2cccc(C3CCN(Cc4ncc(-c5nnc(C(F)(F)F)[nH]5)cc4CC4(C#N)CC4)CC3)c2O1` (stereo not drawn) [Example 5, 1-{[2-({4-[2-(2,4-difluorophenyl)-2-methyl-2H-1,3-benzodioxol-4-yl]piperidin-1-yl}methyl)-5-[5-(trifluoromethyl)-4H-1,2,4-triazol-3-yl]pyridin-3-yl]methyl}cyclopropane-1-carbonitrile] yielded an EC50 of under 1 nM.

As to `Cc1ccc(C2(C)Oc3cccc(C4CCN(Cc5ncc(-c6nnc(C(F)(F)F)[nH]6)cc5CC5(C#N)CC5)CC4)c3O2)c(Cl)c1` (stereo not drawn) [Example 6, 1-((2-((4-(2-(2-Chloro-4-methylphenyl)-2-methylbenzo[d][1,3]dioxol-4-yl)piperidin-1-yl)methyl)-5-(5-(trifluoromethyl)-4H-1,2,4-triazol-3-yl)pyridin-3-yl)methyl)cyclopropane-1-carbonitrile], the EC50 is under 1 nM.

Regarding `Cc1cc(Cl)ccc1C1(C)Oc2cccc(C3CCN(Cc4ncc(-c5nnc(C(F)(F)F)[nH]5)cc4CC4(C#N)CC4)CC3)c2O1` (stereo not drawn) [Example 7, 1-((2-((4-(2-(4-chloro-2-methylphenyl)-2-methylbenzo[d][1,3]dioxol-4-yl)piperidin-1-yl)methyl)-5-(5-(trifluoromethyl)-4H-1,2,4-triazol-3-yl)pyridin-3-yl)methyl)cyclopropane-1-carbonitrile], the EC50 was under 1 nM.

The compound `CC1(c2ccc(C(F)(F)F)cc2F)Oc2cccc(C3CCN(Cc4ncc(-c5nnc(C(F)(F)F)[nH]5)cc4CC4(C#N)CC4)CC3)c2O1` (stereo not drawn) [Example 8, 1-((2-((4-(2-(2-fluoro-4-(trifluoromethyl)phenyl)-2-methylbenzo[d][1,3]dioxol-4-yl)piperidin-1-yl)methyl)-5-(5-(trifluoromethyl)-4H-1,2,4-triazol-3-yl)pyridin-3-yl)methyl)cyclopropane-1-carbonitrile] yielded an EC50 of under 1 nM.
